Laboratory results: patent publication US20090088373A1, “USE OF COMPOSITIONS TO ENHANCE INNATE IMMUNE RESPONSE” (priority 2007, published 2009)

Columns and labels:
cathelicidin = assay: Cathelicidin mRNA expression in normal human keratinocytes (NHEK); type: cell-based; parameters: Cathelicidin mRNA expression (Mean) / Cathelicidin mRNA expression (means): unit not given here; conditions: for Cathelicidin mRNA expression (means): 1 uM tacrolimus, 1 ug/ml CsA, 25ng/ml rapamycin; for Cathelicidin mRNA expression (Means of N = 3): Example 6, 10 nM Pimecrolimus, 1 nM 1,25D3
Method: (§1) To assess the effect of pimecrolimus on the innate immune response of the epidermis, cultures of normal human keratinocytes (NHEK) are stimulated with combinations of a concentration of 10 nM pimecrolimus, 1 μg/ml TLR 2/CD14 ligand—peptidoglycan (PGN), 10 μg/ml lipoteichoic acid (LTA), 2 0.1 μg/ml TLR 2/6 ligand—Malp-, and/or 0.1 μg/ml TLR 4/CD14 ligand—lipopolysaccharide (LPS). Expression of cathelicidin mRNA (Table 3) and protein as well as Human Beta Defensin (HBD) 2 (Table 4) and HBD3 (Table 5) expression in normal human keratinocytes is measured.
(§2) To assess the effect of pimecrolimus on the innate immune response of the epidermis, cultures of normal human keratinocytes (NHEK) are stimulated with a concentration of 10 nM pimecrolimus,1 nM 1.25 D3, 0.1 μg/ml TLR2/6 ligand Malp-2 or their combination. Expression of cathelicidin, CD14 and TLR2 mRNA normal human keratinocytes is measured and evaluated accordingly to the procedures as detailed in Example 2 above.
To assess the effect of pimecrolimus on the innate immune response of the epidermis, cultures of normal human keratinocytes (NHEK) are stimulated with a concentration of 10 nM pimecrolimus, 1 uM tacrolimus, 1 ug/ml CsA, 25ng/ml rapamycin, or a combination of pimecrolimus and rapamycin, each of these with or without 0.1 μg/ml TLR2/6 ligand Malp-2. Cathelicidin mRNA expression is evaluated.
(§3) To assess the effect of time dependent effects of pimecrolimus on the innate immune response of the epidermis, cultures of normal human keratinocytes (NHEK) are stimulated with 10 nM Pimecrolimus and low dose calciferol (1,25D3) 1 nM for different time points. mRNA expression of cathelicidin, CD14 and TLR2 is analyzed by qPCR.
To assess the effect of varying levels of pimecrolimus on the innate immune response of the epidermis, cultures of normal human keratinocytes (NHEK) are stimulated with 0 nM, 5 nM, 10 nM, 20 nM, 30 nM, […], […] and 60 nM concentrations of pimecrolimus. Expression of cathelicidin mRNA expression is measured and evaluated accordingly to the procedures as detailed in Example 2 above.
(§4) To assess the effect of calciferol on varying levels of pimecrolimus on the innate immune response of the epidermis, cultures of normal human keratinocytes (NHEK) are stimulated with 0.01 nM, 0.1 nM, 1 nM and 10 nM concentrations of pimecrolimus with or without 1 nM concentrations of calciferol for 24 hours. Expression of cathelicidin mRNA and gene expression of TLR2 is measured and evaluated accordingly to the procedures as detailed in Example 2 above.

[1] = tested on: Human Beta Defensin (HBD) 2; assay: HBD2 expression in normal human keratinocytes (NHEK); type: cell-based; parameters: unit not given here; conditions: Example 2; TLR ligand alone, without Pimecrolimus
Method: as §1

HBD3 = HBD3 expression in normal human keratinocytes (NHEK); type: cell-based; parameters: unit not given here; conditions: Example 2; TLR ligand alone, without Pimecrolimus
Method: as §1

CD14 = CD14 gene expression by qPCR in NHEK; type: cell-based, human; conditions: for CD14 mRNA expression (Mean): 10 nM pimecrolimus; for CD14 mRNA expression (Means of N = 3): Example 6, 10 nM Pimecrolimus, 1 nM 1,25D3
Method: (§5) To assess the effect of pimecrolimus on the innate immune response of the epidermis, cultures of normal human keratinocytes (NHEK) are stimulated with a combination of a concentration of 10 nM pimecrolimus and of 1 nM 1.25D3. Gene expression of TLR1, TLR2, TLR4, TLR6 and CD14 are evaluated by qPCR. For CD14 protein expression, a Western Blot is performed and bands are quantified by densitometry using lmagej. Vehicle treated keratinocytes serve as controls. Cathelicidin protein expression is evaluated by immunofluorescence staining.
as §2, §3

TLR6 = TLR6 gene expression by qPCR in NHEK; type: cell-based, human; conditions: Example 3; 10 nM pimecrolimus, 1 nM 1.25D3
Method: as §5

TLR2 = TLR2 gene expression by qPCR in NHEK; type: cell-based, human; conditions: for TLR2 mRNA expression (Mean): 10 nM pimecrolimus; for TLR2 mRNA expression (Means of N = 3): Example 6, 10 nM Pimecrolimus, 1 nM 1,25D3
Method: as §5, §2, §3, §4

[2] = tested on: Staphylococcus aureus ΔmprF; assay: Growth of S. aureus ΔmprF (OD600) mixed with lysates of stimulated normal human keratinocytes; type: cell-based; conditions: S. aureus + lysates of NHEK stimulated with 10 nM pimecrolimus, 1 nM 1.25D3 or combination, 37° C.
Method: To assess the effect of pimecrolimus on the innate immune response of the epidermis against bacteria, cultures of normal human keratinocytes (NHEK) are stimulated with a concentration of 10 nM pimecrolimus, 1 nM 1.25D3 (active 1.25 D-hydroxy calciferol) or their combination. Cells are lysed via sonication 20 minutes in an ice bath, after which cell lysates were mixed with Staphylococcus aureus ΔmprF cultures and incubated at 37° C. Bacterial growth over time is monitored by OD600 (Table 1). To determine if Pimecrolimus alone was able to kill Staphylococcus aureus ΔmprF, Pimecrolimus in a concentration of 10 nM is co-incubated with Staphylococcus aureus ΔmprF cultures and incubated at 37° C. (Table 2). Bacterial growth is monitored by OD600 (*: p<0.05; **: p<0.01; Student's t-test).

TLR1 = TLR1 gene expression by qPCR in NHEK; type: cell-based, human; conditions: Example 3; 10 nM pimecrolimus, 1 nM 1.25D3
Method: as §5

[3] = Example 5, Experiment 1, with 0.1 μg/ml Malp-2, 10 nM pimecrolimus
[4] = Example 5, Experiment 1, without Malp-2, 10 nM pimecrolimus
[5] = Example 5, Experiment 2, with 0.1 μg/ml Malp-2, 10 nM pimecrolimus
[6] = Example 5, Experiment 2, without Malp-2, 10 nM pimecrolimus
[7] = Example 2, TLR ligand alone, without Pimecrolimus (1 μg/ml PGN, 10 μg/ml LTA, 0.1 μg/ml Malp-2, 0.1 μg/ml LPS)
[8] = Example 4, 1 nM 1.25 D3, 0.1 μg/ml Malp-2 or combination

CO[C@H]1C[C@@H]2CC[C@@H](C)[C@@](O)(O2)C(=O)C(=O)N2CCCC[C@H]2C(=O)O[C@H]([C@H](C)C[C@@H]2CC[C@@H](O)[C@H](OC)C2)CC(=O)[C@H](C)/C=C(\C)[C@@H](O)[C@@H](OC)C(=O)[C@H](C)C[C@H](C)/C=C/C=C/C=C/1C [Rapamycin, rapamycin]
Cathelicidin mRNA expression (means) (cathelicidin; [3]): 4.03
Cathelicidin mRNA expression (means) (cathelicidin; [4]): 5.13
Cathelicidin mRNA expression (means) (cathelicidin; [5]): 12.38
Cathelicidin mRNA expression (means) (cathelicidin; [6]): 5.85

lipopolysaccharide [LPS]
HBD2 expression (Mean) [1]: 5.68
HBD3 expression (Mean) (HBD3): 1.39
Cathelicidin mRNA expression (Mean) (cathelicidin; [7]): 0.65

Malp-2
HBD2 expression (Mean) [1]: 119.16
HBD3 expression (Mean) (HBD3): 3.51
Cathelicidin mRNA expression (Mean) (cathelicidin; [7]): 2.29
Cathelicidin mRNA expression (means) (cathelicidin; [3]): 1.53
Cathelicidin mRNA expression (means) (cathelicidin; [5]): 3.19

C=C1/C(=C\C=C2/CCC[C@]3(C)[C@@H]([C@H](C)CCCC(C)(C)O)CC[C@@H]23)C[C@@H](O)C[C@@H]1O [1.25D3, 1.25 D-hydroxy calciferol]
CD14 mRNA expression (Mean) (CD14; Example 3, 1 nM 1.25D3): 3.01
CD14 mRNA expression (Mean) (CD14; [8]): 3.01
CD14 mRNA expression (Means of N = 3) (CD14; 0 h): 0.71
CD14 mRNA expression (Means of N = 3) (CD14; 8 h): 38.35
CD14 mRNA expression (Means of N = 3) (CD14; 24 h): 12.26
CD14 mRNA expression (Means of N = 3) (CD14; 48 h): 0.93
Cathelicidin mRNA expression (Mean) (cathelicidin; Example 4, 10 nM pimecrolimus, 1 nM 1.25 D3, 0.1 μg/ml Malp-2 or combination): 2.76
Cathelicidin mRNA expression (Means of N = 3) (cathelicidin; 0 h): 1.00
Cathelicidin mRNA expression (Means of N = 3) (cathelicidin; 8 h): 35.04
Cathelicidin mRNA expression (Means of N = 3) (cathelicidin; 24 h): 134.03
Cathelicidin mRNA expression (Means of N = 3) (cathelicidin; 48 h): 92.37
TLR6 mRNA expression (Mean) (TLR6): 1.01
TLR2 mRNA expression (Mean) (TLR2; Example 3, 1 nM 1.25D3): 0.66
TLR2 mRNA expression (Mean) (TLR2; [8]): 0.10
TLR2 mRNA expression (Means of N = 3) (TLR2; 0 h): 1.00
TLR2 mRNA expression (Means of N = 3) (TLR2; 8 h): 1.32
TLR2 mRNA expression (Means of N = 3) (TLR2; 24 h): 1.51
TLR2 mRNA expression (Means of N = 3) (TLR2; 48 h): 1.55
Bacterial growth OD600 (Mean) ([2]; 0 h): 0.2203
Bacterial growth OD600 (Mean) ([2]; 2 h): 0.2677
Bacterial growth OD600 (Mean) ([2]; 4 h): 0.301
Bacterial growth OD600 (Mean) ([2]; 5 h): 0.3963
Bacterial growth OD600 (Mean) ([2]; 6 h): 0.513
Bacterial growth OD600 (Mean) ([2]; 8 h): 0.6203
TLR1 mRNA expression (Mean) (TLR1): 1.93

C=CC[C@@H]1/C=C(\C)C[C@H](C)C[C@H](OC)[C@H]2O[C@@](O)(C(=O)C(=O)N3CCCC[C@H]3C(=O)O[C@H](/C(C)=C/[C@@H]3CC[C@@H](O)[C@H](OC)C3)[C@H](C)[C@@H](O)CC1=O)[C@H](C)C[C@@H]2OC [Tacrolimus, tacrolimus]
Cathelicidin mRNA expression (means) (cathelicidin; [3]): 5.47
Cathelicidin mRNA expression (means) (cathelicidin; [4]): 0.67
Cathelicidin mRNA expression (means) (cathelicidin; [5]): 0.77
Cathelicidin mRNA expression (means) (cathelicidin; [6]): 3.34

lipoteichoic acid [LTA]
HBD2 expression (Mean) [1]: 4.43
HBD3 expression (Mean) (HBD3): 2.46
Cathelicidin mRNA expression (Mean) (cathelicidin; [7]): 3.82

peptidoglycan [PGN]
HBD2 expression (Mean) [1]: 3.26
HBD3 expression (Mean) (HBD3): 0.61
Cathelicidin mRNA expression (Mean) (cathelicidin; [7]): 1.18
